Data from US20070027143A1, “Novel substituted 2,3-benzodiazepine derivatives” (priority 2003, published 2007).
Structures can show the parent of a compound that is named as a salt. Marks after values point to notes of the source that are not given here.

What was measured:
CD1 mice [1] = assay: Anticonvulsant activity, maximal electroshock seizure (MES) test; format: in vivo; conditions: Mus musculus, 1 h; po., 60 min before induction; read-out: MES (MES 60′) ED50
Protocol: (§1) The anti-seizure activity of some of the compounds of the present invention was measured using the electroshock test (J. Pharmacol. Exp. Ther. 106:319 (1952)) and the results are shown in Table 3. The spasmolytic activity of the compounds of the present invention was investigated by using e.g., pentetrazole (J. Pharmacol. Exp. Ther. 108:168 (1953)), strychnine (J. Pharmacol. Exp. Ther. 129:75 (1960)), bemegrid, nicotine, bicuculline, 4-aminopyridine and mercapto-propionic acid for inducing the clonic-tonic seizures and lethality. The investigated compounds were administered orally in three doses using 10 male CD1 mice/dose, usually 60 min before the induction of seizures.

CD1 mice [2] = assay: Anticonvulsant activity, nicotine induced seizures; format: in vivo; conditions: Mus musculus; po.
Protocol: as §1

CD1 mice [3] = assay: Muscle relaxant activity, inclined screen test; format: in vivo; conditions: Mus musculus, ip
CD1 mice [4] = assay: Anticonvulsant activity, 3-mercapto-propionic acid induced seizures; format: in vivo; conditions: Mus musculus; po.; read-out: 3-MPA ED50
Protocol: as §1

CD1 mice [5] = assay: Muscle relaxant activity, rotarod test; format: in vivo; conditions: Mus musculus, ip
CD1 mice [6] = assay: Anticonvulsant activity, 4-aminopyridine induced seizures; format: in vivo; conditions: Mus musculus; po.; read-out: 4-AP ED50
Protocol: as §1

CD1 mice [7] = assay: Anticonvulsant activity, pentetrazole induced seizures; format: in vivo; conditions: Mus musculus; po.; read-out: Pentetrazol ED50
Protocol: as §1

CD1 mice [8] = assay: Anticonvulsant activity, bicuculline induced seizures; format: in vivo; conditions: Mus musculus; po.; read-out: Bicuculline ED50
Protocol: as §1

CD1 mice [9] = assay: Anticonvulsant activity, strychnine induced seizures; format: in vivo; conditions: Mus musculus; po.; read-out: Strychnine ED50
Protocol: as §1

CD1 mice [10] = assay: Anticonvulsant activity, bemegride induced seizures; format: in vivo; conditions: Mus musculus; po.; read-out: Bemegride ED50
Protocol: as §1

rats = assay: Inhibition of focal ischemia, middle cerebral artery occlusion (MCAO) test; format: in vivo
Protocol: The focal anti-ischemic activity of the compounds of formula (I) or (II) of the present invention was measured by the “middle cerebral artery occlusion” (MCAO) test (Bartus Stroke 11:2265 (1994) and Sydserff et al, Brit. J. Pharmacol. 114:1631 (1995)). […] After a histological process (TTC staining) 24 h later, the infarcted area was determined by a computer assisted scanner program and was compared to the results obtained in a control group treated with the vehicle.

melting point	Structure (SMILES)	further results
135 to 140 °C	CCOC(=O)c1nnc(N2N=C(c3ccc(N)c(C)c3)c3cc4c(cc3C[C@H]2C)OCO4)s1 [Example 175, (R)-5-(4-Amino-3-methylphenyl)-7-(5-ethoxycarbonyl-1,3,4-thiadiazol-2-yl)-8-methyl-8,9-dihydro-7H-1,3-dioxolo[4,5-h][2,3]benzodiazepine]	–
139 to 140 °C	Cc1cc(C2=NN(c3nnc(CN)s3)[C@H](C)Cc3cc4c(cc32)OCO4)ccc1N [Example 176, (R)-5-(4-Amino-3-methylphenyl)-7-(5-aminomethyl-1,3,4-thiadiazol-2-yl)-8-methyl-8,9-dihydro-7H-1,3-dioxolo[4,5-h][2,3]benzodiazepine]	–
139 to 143 °C	C/C=C/c1nnc(N2N=C(c3ccc(N)c(C)c3)c3cc4c(cc3C[C@H]2C)OCO4)s1 [Example 177, (R)-5-(4-Amino-3-methylphenyl)-8-methyl-7-{5-[1-(1E)-propen-1-yl]-1,3,4-thiadiazol-2-yl}-8,9-dihydro-7H-1,3-dioxolo[4,5-h][2,3]benzodiazepine]	–
180 to 181 °C	CCCCCCc1nnc(N2N=C(c3ccc(N)c(C)c3)c3cc4c(cc3C[C@H]2C)OCO4)s1 [Example 178, (R)-5-(4-Amino-3-methylphenyl)-7-(5-hexyl-1,3,4-thiadiazol-2-yl)-8-methyl-8,9-dihydro-7H-1,3-dioxolo[4,5-h][2,3]benzodiazepine]	–
187 to 190 °C	C[C@@H]1Cc2cc3c(cc2C(c2ccc(N)cc2)=NN1c1nnco1)OCO3 [Example 180, (R)-5-(4-Aminophenyl)-8-methyl-7-(1,3,4-oxadiazol-2-yl)-8,9-dihydro-7H-1,3-dioxolo[4,5-h][2,3]benzodiazepine]	–
140 to 145 °C	Cc1nnc(N2N=C(c3ccc(N)c(C)c3)c3cc4c(cc3C[C@H]2C)OCO4)o1 [Example 181, (R)-5-(4-Amino-3-methylphenyl)-8-methyl-7-(5-methyl-1,3,4-oxadiazol-2-yl)-8,9-dihydro-7H-1,3-dioxolo[4,5-h][2,3]benzodiazepine]	–
105 to 109 °C	COCc1nnc(N2N=C(c3ccc(N)c(Cl)c3)c3cc4c(cc3C[C@H]2C)OCO4)s1 [Example 183, (R)-5-(4-Amino-3-chlorophenyl)-8-methyl-7-(5-methoxymethyl-1,3,4-thiadiazol-2-yl)-8,9-dihydro-7H-1,3-dioxolo[4,5-h][2,3]benzodiazepine]	–
220 to 221 °C	C[C@@H]1Cc2cc3c(cc2C(c2ccc(N)cc2)=NN1c1cnns1)OCO3 [Example 186, (R)-5-(4-Aminophenyl)-8-methyl-7-(1,2,3-thiadiazol-5-yl)-8,9-dihydro-7H-1,3-dioxolo-[4,5-h][2,3]benzodiazepine]	–
202 to 203 °C	Cc1cc(C2=NN(c3nccs3)[C@H](C)Cc3cc4c(cc32)OCO4)cc(C)c1N [Example 189, (R)-5-(4-Amino-3,5-dimethylphenyl)-8-methyl-7-(thiazol-2-yl)-8,9-dihydro-7H-1,3-dioxolo-[4,5-h][2,3]benzodiazepine]	–
280 to 281 °C	Cc1nnc(N2N=C(c3cc(C)c(N)c(C)c3)c3cc4c(cc3C[C@H]2C)OCO4)s1 [Example 190, (R)-5-(4-Amino-3,5-dimethylphenyl)-8-methyl-7-(5-methyl-1,3,4-thiadiazol-2-yl)-8,9-dihydro-7H-1,3-dioxolo[4,5-h][2,3]benzodiazepine]	–
148 to 150 °C	Cc1nnc(N2N=C(c3cc(C)c(N)c(C)c3)c3cc4c(cc3C[C@H]2C)OCO4)o1 [Example 191, (R)-5-(4-Amino-3,5-dimethylphenyl)-8-methyl-7-(5-methyl-1,3,4-oxadiazol-2-yl)-8,9-dihydro-7H-1,3-dioxolo[4,5-h][2,3]benzodiazepine]	–

Second part, the compound before the results:

Structure (SMILES)	melting point	further results
CCc1nnc(N2N=C(c3ccc(N)cc3)c3cc4c(cc3C[C@H]2C)OCO4)s1 [Example 89, (R)-5-(4-Aminophenyl)-7-(5-ethyl-1,3,4-thiadiazol-2-yl)-8-methyl-8,9-dihydro-7H-1,3-dioxolo-[4,5-h][2,3]benzodiazepine]	142 to 144 °C	ED50 (CD1 mice [1]): 10.5 mg/kg; ED50 (CD1 mice [2]): 45.9 mg/kg; ED50 (CD1 mice [3]): 4.3 mg/kg; ED50 (CD1 mice [4]): > 50 mg/kg; ED50 (CD1 mice [5]): 1.7 mg/kg; ED50 (CD1 mice [6]): 14.3 mg/kg; ED50 (CD1 mice [7]): 11.5 mg/kg; ED50 (CD1 mice [8]): 17.1 mg/kg; ED50 (CD1 mice [9]): 15.7 mg/kg; ED50 (CD1 mice [10]): 11.2 mg/kg
Cc1cc(C2=NN(C3=NN=C(C(=O)OCc4ccccc4)[SH]3CN)[C@H](C)Cc3cc4c(cc32)OCO4)ccc1[N+](=O)[O-] (stereo partly drawn) [Example 145, (R)-7-(5-Benzyloxycarbonyl-aminomethyl-1,3,4-thiadiazol-2-yl)-8-methyl-5-(3-methyl-4-nitrophenyl)-8,9-dihydro-7H-1,3-dioxolo[4,5-h][2,3]benzodiazepine]	240 to 243 °C	–
C/C=C/c1nnc(N2N=C(c3ccc([N+](=O)[O-])c(C)c3)c3cc4c(cc3C[C@H]2C)OCO4)s1 [Example 146, (R)-8-Methyl-5-(3-methyl-4-nitrophenyl)-7-{5-[1-(1E)-propen-1-yl]-1,3,4-thiadiazol-2-yl}-8,9-dihydro-7H-1,3-dioxolo[4,5-h][2,3]benzodiazepine]	232 to 237 °C	–
CCCCCCc1nnc(N2N=C(c3ccc([N+](=O)[O-])c(C)c3)c3cc4c(cc3C[C@H]2C)OCO4)s1 [Example 147, (R)-7-(5-Hexyl-1,3,4-thiadiazol-2-yl)-8-methyl-5-(3-methyl-4-nitrophenyl)-8,9-dihydro-7H-1,3-dioxolo[4,5-h][2,3]benzodiazepine]	217 to 224 °C	–
Cc1cc(C2=NN(C3=NCCS3)[C@H](C)Cc3cc4c(cc32)OCO4)ccc1N [Example 163, (R)-5-(4-Amino-3-methylphenyl)-8-methyl-7-(4,5-dihydro-thiazol-2-yl)-8,9-dihydro-7H-1,3-dioxolo-[4,5-h][2,3]benzodiazepine]	125 to 128 °C	–
Cc1cc(C2=NN(c3nccs3)[C@H](C)Cc3cc4c(cc32)OCO4)ccc1N [Example 164, (R)-5-(4-Amino-3-methylphenyl)-8-methyl-7-(thiazol-2-yl)-8,9-dihydro-7H-1,3-dioxolo-[4,5-h][2,3]benzodiazepine]	124 to 127 °C	–
Cc1cc(C2=NN(c3nnc(C(C)C)s3)[C@H](C)Cc3cc4c(cc32)OCO4)ccc1N [Example 169, (R)-5-(4-Amino-3-methylphenyl)-7-(5-isopropyl-1,3,4-thiadiazol-2-yl)-8-methyl-8,9-dihydro-7H-1,3-dioxolo[4,5-h][2,3]benzodiazepine]	134 to 140 °C	–
Cc1cc(C2=NN(c3nnc(CO)s3)[C@H](C)Cc3cc4c(cc32)OCO4)ccc1N [Example 171, (R)-5-(4-Amino-3-methylphenyl)-7-(5-hydroxymethyl-1,3,4-thiadiazol-2-yl)-8-methyl-8,9-dihydro-7H-1,3-dioxolo[4,5-h][2,3]benzodiazepine]	184 to 186 °C	–
CC(=O)OCc1nnc(N2N=C(c3ccc(N)c(C)c3)c3cc4c(cc3C[C@H]2C)OCO4)s1 [Example 172, (R)-7-(5-Acetoxymethyl-1,3,4-thiadiazol-2-yl)-5-(4-amino-3-methylphenyl)-8-methyl-8,9-dihydro-7H-1,3-dioxolo[4,5-h][2,3]benzodiazepine]	204 to 206 °C	–
Cc1cc(C2=NN(c3nnc(CC#N)s3)[C@H](C)Cc3cc4c(cc32)OCO4)ccc1N [Example 173, (R)-5-(4-Amino-3-methylphenyl)-7-(5-cyanomethyl-1,3,4-thiadiazol-2-yl)-8-methyl-8,9-dihydro-7H-1,3-dioxolo[4,5-h][2,3]benzodiazepine]	135 to 140 °C	–
CSCc1nnc(N2N=C(c3ccc(N)c(C)c3)c3cc4c(cc3C[C@H]2C)OCO4)s1 [Example 174, (R)-5-(4-Amino-3-methylphenyl)-8-methyl-7-(5-methylthiomethyl-1,3,4-thiadiazol-2-yl)-8,9-dihydro-7H-1,3-dioxolo[4,5-h][2,3]benzodiazepine]	177 to 180 °C	–
CC1=NN=C(c2ccc(N)cc2)c2cc3c(cc2C1)OCO3 [GYKI 52466 HCl, 5-(4-aminophenyl)-8-methyl-9H-1,3-dioxolo[4,5-h][2,3]benzodiazepine, reference compound]	–	Decrease of the infracted area in % compared to that of the control (rats; 2 mg/kg iv. 6x in every 30 min, first treatment 120 min after occlusion): 39* %; Decrease of the infracted area in % compared to that of the control (rats; 5 mg/kg iv. 6x in every 30 min, first treatment 30 min after occlusion): 34* %; Decrease of the infracted area in % compared to that of the control (rats; 5 mg/kg iv. 6x in every 30 min, first treatment 120 min after occlusion): 47** %
